Test results: ChEMBL document CHEMBL5385882, “Rational design and appraisal of selective Cdc2-Like kinase 1 (Clk1) inhibitors as novel autophagy inducers for the treatment of acute liver injury (ALI)” (Eur J Med Chem, 2023)
The source made the active and inactive calls. No cut-off for these calls is given here.

Key:
[1] = target: T1, Dual specificity protein kinase CLK1 (Homo sapiens, UniProt P49759); test: Inhibition of human 130-end recombinant CLK1 assessed as remaining activity using ERMRPRKRQGSVR as substrate at 100 nM by [gamma-32P]ATP binding based scintillation counting based analysis relative to control
Target sequence in this assay (P49759 whole entry, looked up): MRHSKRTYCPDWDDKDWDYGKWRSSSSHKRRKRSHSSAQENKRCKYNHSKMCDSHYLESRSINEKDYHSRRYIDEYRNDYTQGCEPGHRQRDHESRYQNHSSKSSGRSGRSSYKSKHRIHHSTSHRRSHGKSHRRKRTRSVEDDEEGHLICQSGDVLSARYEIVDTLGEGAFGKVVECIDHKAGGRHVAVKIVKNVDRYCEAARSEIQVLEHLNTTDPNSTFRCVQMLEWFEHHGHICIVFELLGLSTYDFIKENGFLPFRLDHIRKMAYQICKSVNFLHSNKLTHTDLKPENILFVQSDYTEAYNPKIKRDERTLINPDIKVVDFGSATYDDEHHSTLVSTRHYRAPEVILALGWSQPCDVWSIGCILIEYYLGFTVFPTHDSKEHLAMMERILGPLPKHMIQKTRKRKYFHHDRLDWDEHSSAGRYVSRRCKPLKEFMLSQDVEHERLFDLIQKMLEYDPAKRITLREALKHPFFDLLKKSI

[2] = target: T2, Dual specificity tyrosine-phosphorylation-regulated kinase 1A (Homo sapiens, UniProt Q13627); test: Inhibition of human full length recombinant DYRK1A assessed as remaining activity using RRRFRPASPLRGPP as substrate at 100 nM by [gamma-32P]ATP binding based scintillation counting based analysis relative to control
[3] = target: T1, Dual specificity protein kinase CLK1; test: Inhibition of human 130-end recombinant CLK1 assessed as remaining activity using ERMRPRKRQGSVR as substrate by [gamma-32P]ATP binding based scintillation counting based analysis
Target sequence in this assay (P49759 whole entry): as the sequence (P49759 whole entry, looked up) above

[4] = target: T2, Dual specificity tyrosine-phosphorylation-regulated kinase 1A; test: Inhibition of human full length recombinant DYRK1A assessed as remaining activity using RRRFRPASPLRGPP as substrate by [gamma-32P]ATP binding based scintillation counting based analysis
[5] = species: Homo sapiens; test: Selectivity index, ratio of IC50 for inhibition of human full length recombinant DYRK1A to IC50 for inhibition of human 130-end recombinant CLK1
[6] = Metabolic stability in human liver microsomes assessed as half life at 10 uM incubated for 5 mins in the presence of NADPH-generating system by LC-MS/MS analysis; format: ADME, Microsome
[7] = target: Dual specificity protein kinase CLK1 (Mus musculus) (UniProt P22518); test: Inhibition of Clk1 in mouse BNL CL.2 cells assessed as redistribution of serine/arginine (SR) proteins from nucleoplasmic (active form) to nuclear speckles (storage form) incubated for 24 hrs by immunofluorescence assay; format: cell-based; details: dose 1-10 µM
[8] = target: T1, Dual specificity protein kinase CLK1; test: Binding affinity to Clk1 protein (unknown origin) assessed as inhibition of degradation in presence of 1:15 pronase to compound concentration
Target sequence in this assay (P49759 whole entry, looked up): as above

[9] = tested on: HeLa; test: Induction of autophagy in human HeLa cells assessed as increase in LC3II protein incubated for 24 hrs by Western blot analysis; format: functional, cell-based; details: dose 0.2-10 µM
[10] = tested on: HeLa; test: Induction of autophagy in human HeLa cells assessed as ratio of LC3II protein to LC3I incubated for 24 hrs by Western blot analysis; format: functional, cell-based; details: dose 0.2-10 nM
[11] = tested on: HeLa; test: Induction of autophagy in human HeLa cells assessed as increase in LC3II protein at 10 uM by Western blot analysis; format: functional, cell-based; details: time 3-24 hrs, TDE = time-dependent effect
[12] = tested on: HeLa; test: Induction of autophagy in human HeLa cells assessed as ratio of LC3II protein to LC3I at 10 uM by Western blot analysis; format: functional, cell-based; details: time 3-24 hrs, TDE = time-dependent effect
[13] = tested on: HeLa; test: Induction of autophagy in human HeLa cells assessed as degradation of SQSTM1/p62 at 10 uM incubated for 24 hrs by Western blot analysis; format: functional, cell-based
[14] = tested on: HeLa; test: Induction of autophagy in human HeLa cells infected with RFP-GFP-LC3 assessed as increased the number of yellow LC3 puncta at 10 uM after 24 hrs by confocal microscopy; format: functional, cell-based
[15] = Oral bioavailability in Balb/c mouse at 10 mg/kg measured upto24 hrs by LC/MS/MS analysis; format: ADME, organism-based; details: in vivo, time 24 hrs
[16] = Cmax in Balb/c mouse at 10 mg/kg, iv measured upto24 hrs by LC/MS/MS analysis; format: ADME, organism-based; parameters: time 24 hrs, dose 10 mg/kg, route iv; details: in vivo
[17] = Cmax in Balb/c mouse at 10 mg/kg, po measured upto24 hrs by LC/MS/MS analysis; format: ADME, organism-based; parameters: dose 10 mg/kg, time 24 hrs, route po; details: in vivo
[18] = Cmax in Balb/c mouse at 10 mg/kg, ip measured upto24 hrs by LC/MS/MS analysis; format: ADME, organism-based; parameters: dose 10 mg/kg, time 24 hrs, route ip; details: in vivo
[19] = Clearance in Balb/c mouse at 10 mg/kg, iv measured upto24 hrs by LC/MS/MS analysis; format: ADME, organism-based; details: in vivo, time 24 hrs
[20] = Clearance in Balb/c mouse at 10 mg/kg, po measured upto24 hrs by LC/MS/MS analysis; format: ADME, organism-based; details: in vivo, time 24 hrs
[21] = Clearance in Balb/c mouse at 10 mg/kg, ip measured upto24 hrs by LC/MS/MS analysis; format: ADME, organism-based; details: in vivo, time 24 hrs
[22] = Half life in Balb/c mouse at 10 mg/kg, iv measured upto24 hrs by LC/MS/MS analysis; format: ADME, organism-based; details: in vivo, time 24 hrs
[23] = Half life in Balb/c mouse at 10 mg/kg, po measured upto24 hrs by LC/MS/MS analysis; format: ADME, organism-based; details: in vivo, time 24 hrs
[24] = Half life in Balb/c mouse at 10 mg/kg, ip measured upto24 hrs by LC/MS/MS analysis; format: ADME, organism-based; details: in vivo, time 24 hrs
[25] = AUC (0 to t) in Balb/c mouse at 10 mg/kg, iv measured upto24 hrs by LC/MS/MS analysis; format: ADME, organism-based; parameters: time 24 hrs, dose 10 mg/kg, route iv; details: in vivo
[26] = AUC (0 to t) in Balb/c mouse at 10 mg/kg, po measured upto24 hrs by LC/MS/MS analysis; format: ADME, organism-based; parameters: dose 10 mg/kg, time 24 hrs, route po; details: in vivo
[27] = AUC (0 to t) in Balb/c mouse at 10 mg/kg, ip measured upto24 hrs by LC/MS/MS analysis; format: ADME, organism-based; parameters: time 24 hrs, dose 10 mg/kg, route ip; details: in vivo
[28] = tested on: Mus musculus; test: Protection against APAP-induced acute liver injury in ip dosed C57BL/6 mouse model assessed as volume of hepatocytes measured after 6 hrs by H and E staining method; format: functional, organism-based; details: dose 10-40 mg/kg
[29] = tested on: Mus musculus; test: Protection against APAP-induced acute liver injury in ip dosed C57BL/6 mouse model assessed as tiny vacuoles in hepatocyte cytoplasm measured after 6 hrs by H and E staining method; format: functional, organism-based; details: dose 10-40 mg/kg
[30] = tested on: Mus musculus; test: Protection against APAP-induced acute liver injury in ip dosed C57BL/6 mouse model assessed as necrotic hepatocytes measured after 6 hrs by H and E staining method; format: functional, organism-based; details: dose 10-40 mg/kg
[31] = tested on: Mus musculus; test: Protection against APAP-induced acute liver injury in ip dosed C57BL/6 mouse model assessed as decrease in body temperature measured after 6 hrs by H and E staining method; format: functional, organism-based; details: dose 10-40 mg/kg
[32] = tested on: Mus musculus; test: Protection against APAP-induced acute liver injury in ip dosed C57BL/6 mouse model assessed as decrease in serum ALT level measured after 6 hrs; format: functional, organism-based; details: dose 10-40 mg/kg
[33] = tested on: Mus musculus; test: Protection against APAP-induced acute liver injury in ip dosed C57BL/6 mouse model assessed as decrease in serum AST level measured after 6 hrs; format: functional, organism-based
[34] = Metabolic stability in human liver microsomes assessed as clearance at 10 uM incubated for 5 mins in the presence of NADPH-generating system by LC-MS/MS analysis; format: ADME, Microsome

Sequence of Dual specificity protein kinase CLK1 (Mus musculus) (P22518 whole entry, looked up): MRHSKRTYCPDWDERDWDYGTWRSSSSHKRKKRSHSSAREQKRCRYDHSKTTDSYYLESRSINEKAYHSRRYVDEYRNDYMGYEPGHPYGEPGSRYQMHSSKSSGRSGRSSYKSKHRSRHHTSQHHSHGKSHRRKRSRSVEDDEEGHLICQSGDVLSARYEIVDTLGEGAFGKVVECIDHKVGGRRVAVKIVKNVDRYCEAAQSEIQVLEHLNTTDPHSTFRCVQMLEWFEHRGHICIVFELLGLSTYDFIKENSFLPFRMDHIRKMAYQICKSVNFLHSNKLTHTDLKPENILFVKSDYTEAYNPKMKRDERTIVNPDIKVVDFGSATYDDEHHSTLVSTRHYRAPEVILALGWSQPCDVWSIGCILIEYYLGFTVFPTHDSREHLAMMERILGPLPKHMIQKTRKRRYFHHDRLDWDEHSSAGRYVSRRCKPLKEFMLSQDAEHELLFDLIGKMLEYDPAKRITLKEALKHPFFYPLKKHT

CN1CCN(c2ccc(C(=O)Nc3cnc4[nH]cc(-c5cncc(F)c5)c4c3)cc2)CC1
Activity [1]: 2% | Activity [2]: 72% | IC50 [3]: 0.005 µM | IC50 [4]: 1.52 µM | Selectivity Index [5]: 304 | half-life at 10 µM [6]: > 2 h | inhibition [7]: Dose-Dependent Effect | Activity [8]: Dose-Dependent Effect | Activity [9]: Dose-Dependent Effect | Activity [10]: Dose-Dependent Effect | Activity [11]: Tde | Activity [12]: Tde | Activity [13]: Active | Activity [14]: Active | bioavailability [15]: 19.5% | Cmax [16]: 13200 ng/mL | Cmax [17]: 1460 ng/mL | Cmax [18]: 4650 ng/mL | clearance [19]: 17.5 mL/min/kg | CL/F [20]: 91.8 mL/min/kg | CL/F [21]: 59.7 mL/min/kg | half-life [22]: 2.96 h | half-life [23]: 5.29 h | half-life [24]: 3.27 h | AUC(0-t) at 24 h [25]: 9520 ng·h/mL | AUC(0-t) at 24 h [26]: 1860 ng·h/mL | AUC(0-t) at 24 h [27]: 5010 ng·h/mL | Activity [28]: Dose-Dependent Effect | Activity [29]: Dose-Dependent Effect | Activity [30]: Dose-Dependent Effect | Activity [31]: Dose-Dependent Effect | Activity [32]: Dose-Dependent Effect | Activity [33]: Dose-Dependent Effect | CLH [34]: < 12 mL/min/g
